Test results taken from patent US20100010219A1, “METHOD FOR PRODUCING PYRROLIDINE COMPOUND” (JAPAN TOBACCO INC., priority 2006, published 2010).
Where a name gives a salt, the structure may show the parent alone.

Target: T1, human HSD-1 (recombinant HSD-1) (Homo sapiens, UniProt P28845)
T1 construct: made in house
Assay: HSD-1 activity inhibitory action in vitro (SPA, conversion of cortisone to cortisol)
Assay type: biochemical
Conditions: recombinant human HSD-1 expressed using baculovirus system; 10 nM 3H cortisone, 500 μM NADPH; room temperature 90 to 120 min; read-out: hHSD1 (IC50 (nM))

T1 sequence (P28845 whole entry): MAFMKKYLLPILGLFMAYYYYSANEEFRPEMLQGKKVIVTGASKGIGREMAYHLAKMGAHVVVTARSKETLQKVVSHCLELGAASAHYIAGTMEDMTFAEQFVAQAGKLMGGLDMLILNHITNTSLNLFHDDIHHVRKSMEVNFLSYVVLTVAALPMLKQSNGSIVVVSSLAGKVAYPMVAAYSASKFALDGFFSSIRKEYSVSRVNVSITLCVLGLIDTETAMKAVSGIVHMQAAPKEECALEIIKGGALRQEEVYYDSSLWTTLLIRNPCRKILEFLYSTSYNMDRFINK

IC50, < 30 nM:
O=C(c1cnn(C2CCN(C(=O)N3CCS(=O)(=O)CC3)CC2)c1C1CC1)N1CC[C@@H](c2ccccc2C(F)(F)F)C1 [Example 12, 1-{5-cyclopropyl-1-[1-(1,1-dioxothiomorpholine-4-carbonyl)piperidin-4-yl]-1H-pyrazole-4-carbonyl}-[(S)-3-(2-trifluoromethylphenyl)]pyrrolidine]
CC(=O)NCCC(=O)N1CCC(n2ncc(C(=O)N3CC[C@@H](c4ccccc4C(F)(F)F)C3)c2C2CC2)CC1 [Example 75, 1-{1-[1-(3-acetylaminopropionyl)piperidin-4-yl]-5-cyclopropyl-1H-pyrazole-4-carbonyl}-[(S)-3-(2-trifluoromethylphenyl)]pyrrolidine]
O=C(c1cnn(C2CCN(C(=O)C3CC3)CC2)c1C1CC1)N1CC[C@@H](c2ccccc2C(F)(F)F)C1 [Example 64, 1-[1-(1-cyclopropanecarbonylpiperidin-4-yl)-5-cyclopropyl-1H-pyrazole-4-carbonyl]-[(S)-3-(2-trifluoromethylphenyl)]pyrrolidine]
CC(C)(C(N)=O)N1CCC(n2ncc(C(=O)N3CC[C@@H](c4ccccc4C(F)(F)F)C3)c2C2CC2)CC1 [Example 96, 1-{1-[1-(1-carbamoyl-1-methylethyl)piperidin-4-yl]-5-cyclopropyl-1H-pyrazole-4-carbonyl}-[(S)-3-(2-trifluoromethylphenyl)]pyrrolidine hydrochloride]
CC(C)C[C@@H](CO)NC(=O)N1CCC(n2ncc(C(=O)N3CC[C@@H](c4ccccc4C(F)(F)F)C3)c2C2CC2)CC1 [Example 52, 1-(5-cyclopropyl-1-{1-[(S)-1-hydroxymethyl-3-methylbutylcarbamoyl]piperidin-4-yl}-1H-pyrazole-4-carbonyl)-[(S)-3-(2-trifluoromethylphenyl)]pyrrolidine]
NC(=O)C1CN(C(=O)N2CCC(n3ncc(C(=O)N4CC[C@@H](c5ccccc5C(F)(F)F)C4)c3C3CC3)CC2)C1 [Example 34, 1-{1-[1-(3-carbamoylazetidine-1-carbonyl)piperidin-4-yl]-5-cyclopropyl-1H-pyrazole-4-carbonyl}-[(S)-3-(2-trifluoromethylphenyl)]pyrrolidine]
O=C(c1cnn(C2CCN(c3n[nH]c(C(F)(F)F)n3)CC2)c1C1CC1)N1CC[C@@H](c2ccccc2C(F)(F)F)C1 [Example 120, 1-{5-cyclopropyl-1-[1-(5-trifluoromethyl-4H-[1,2,4]triazol-3-yl)piperidin-4-yl]-1H-pyrazole-4-carbonyl}-[(S)-3-(2-trifluoromethylphenyl)]pyrrolidine hydrochloride]
C/C(=N\C#N)N1CCC(n2ncc(C(=O)N3CC[C@@H](c4ccccc4C(F)(F)F)C3)c2C2CC2)CC1 [Example 110, 1-{1-[1-(1-cyanoiminoethyl)piperidin-4-yl]-5-cyclopropyl-1H-pyrazole-4-carbonyl}-[(S)-3-(2-trifluoromethylphenyl)]pyrrolidine]
O=C(Nc1ccc(Cl)nc1Cl)N1CCC(n2ncc(C(=O)N3CCC(c4ccccc4C(F)(F)F)C3)c2C2CC2)CC1 (stereo not drawn) [Example 150, 1-{5-cyclopropyl-1-[1-(2,6-dichloropyridin-3-ylcarbamoyl)piperidin-4-yl]-1H-pyrazole-4-carbonyl}-3-(2-trifluoromethylphenyl)pyrrolidine]
O=C(CC(F)(F)F)N1CCC(n2ncc(C(=O)N3CC[C@@H](c4ccccc4C(F)(F)F)C3)c2C2CC2)CC1 [Example 73, 1-{5-cyclopropyl-1-[1-(3,3,3-trifluoropropionyl)piperidin-4-yl]-1H-pyrazole-4-carbonyl}-[(S)-3-(2-trifluoromethylphenyl)]pyrrolidine]
CC1(c2c(C(=O)N3CCC(c4ccccc4CO)C3)cnn2C2CCN(c3ncccn3)CC2)CC1 (stereo not drawn) [Example 180, 3-(2-hydroxymethylphenyl)-1-{5-(1-methylcyclopropyl)-1-[1-(pyrimidin-2-yl)piperidin-4-yl]-1H-pyrazole-4-carbonyl}pyrrolidine hydrochloride]
CC1(C(=O)N2CCC(n3ncc(C(=O)N4CC[C@@H](c5ccccc5C(F)(F)F)C4)c3C3CC3)CC2)CC1 [Example 69, 1-{5-cyclopropyl-1-[1-(1-methylcyclopropanecarbonyl)piperidin-4-yl]-1H-pyrazole-4-carbonyl}-[(S)-3-(2-trifluoromethylphenyl)]pyrrolidine]
CN/C(=N\C#N)N1CCC(n2ncc(C(=O)N3CC[C@@H](c4ccccc4C(F)(F)F)C3)c2C2CC2)CC1 [Example 111, 1-(1-{1-[cyanoimino(methylamino)methyl]piperidin-4-yl}-5-cyclopropyl-1H-pyrazole-4-carbonyl)-[(S)-3-(2-trifluoromethylphenyl)]pyrrolidine]
CS(=O)(=O)NCC(=O)N1CCC(n2ncc(C(=O)N3CC[C@@H](c4ccccc4C(F)(F)F)C3)c2C2CC2)CC1 [Example 90, 1-{5-cyclopropyl-1-[1-(2-methanesulfonylaminoacetyl)piperidin-4-yl]-1H-pyrazole-4-carbonyl}-[(S)-3-(2-trifluoromethylphenyl)]pyrrolidine]
N#Cc1ccccc1C1CCN(C(=O)c2cnn(C3CCN(C(=O)Nc4ccccc4F)CC3)c2C2CC2)C1 (stereo not drawn) [Example 184, 3-(2-cyanophenyl)-1-{5-cyclopropyl-1-[1-(2-fluorophenylcarbamoyl)piperidin-4-yl]-1H-pyrazole-4-carbonyl}pyrrolidine]
CC(=O)N1CCC(C(=O)N2CCC(n3ncc(C(=O)N4CC[C@@H](c5ccccc5C(F)(F)F)C4)c3C3CC3)CC2)CC1 [Example 91, 1-{1-[1-(1-acetylpiperidine-4-carbonyl)piperidin-4-yl]-5-cyclopropyl-1H-pyrazole-4-carbonyl}-[(S)-3-(2-trifluoromethylphenyl)]pyrrolidine]
O=C(NCCO)N1CCC(n2ncc(C(=O)N3CC[C@@H](c4ccccc4C(F)(F)F)C3)c2C2CC2)CC1 [Example 8, 1-{5-cyclopropyl-1-[1-(2-hydroxyethylcarbamoyl)piperidin-4-yl]-1H-pyrazole-4-carbonyl}-[(S)-3-(2-trifluoromethylphenyl)]pyrrolidine]
NCC(=O)N1CCC(n2ncc(C(=O)N3CC[C@@H](c4ccccc4C(F)(F)F)C3)c2C2CC2)CC1 [Example 77, 1-{1-[1-(2-aminoacetyl)piperidin-4-yl]-5-cyclopropyl-1H-pyrazole-4-carbonyl}-[(S)-3-(2-trifluoromethylphenyl)]pyrrolidine hydrochloride]
CN(C)CC(=O)N1CCC(n2ncc(C(=O)N3CC[C@@H](c4ccccc4C(F)(F)F)C3)c2C2CC2)CC1 [Example 67, 1-{5-cyclopropyl-1-[1-(2-dimethylaminoacetyl)piperidin-4-yl]-1H-pyrazole-4-carbonyl}-[(S)-3-(2-trifluoromethylphenyl)]pyrrolidine hydrochloride]
O=C(c1cnn(C2CCN(C(=O)N3CCC(F)(F)C3)CC2)c1C1CC1)N1CC[C@@H](c2ccccc2C(F)(F)F)C1 [Example 19, 1-{5-cyclopropyl-1-[1-(3,3-difluoropyrrolidine-1-carbonyl)piperidin-4-yl]-1H-pyrazole-4-carbonyl}-[(S)-3-(2-trifluoromethylphenyl)]pyrrolidine]
CC1(c2c(C(=O)N3CCC(c4cccnc4)C3)cnn2C2CCN(C(=O)N3CCOc4ccccc43)CC2)CC1 (stereo not drawn) [Example 149]
O=C(c1cnn(C2CCN(C(=O)C3(CO)CC3)CC2)c1C1CC1)N1CC[C@@H](c2ccccc2C(F)(F)F)C1 [Example 78, 1-{5-cyclopropyl-1-[1-(1-hydroxymethylcyclopropanecarbonyl)piperidin-4-yl]-1H-pyrazole-4-carbonyl}-[(S)-3-(2-trifluoromethylphenyl)]pyrrolidine]
CS(=O)(=O)NC(=O)N1CCC(n2ncc(C(=O)N3CC[C@@H](c4ccccc4C(F)(F)F)C3)c2C2CC2)CC1 [Example 56, 1-[5-cyclopropyl-1-(1-methanesulfonylaminocarbonylpiperidin-4-yl)-1H-pyrazole-4-carbonyl]-[(S)-3-(2-trifluoromethylphenyl)]pyrrolidine]
O=C(c1cnn(C2CCNCC2)c1C1CC1)N1CC[C@@H](c2ccccc2C(F)(F)F)C1 [Example 2, 1-[5-cyclopropyl-1-(piperidin-4-yl)-1H-pyrazole-4-carbonyl]-[(S)-3-(2-trifluoromethylphenyl)]pyrrolidine hydrochloride]
CC(=O)N1CCC(NC(=O)N2CCC(n3ncc(C(=O)N4CC[C@@H](c5ccccc5C(F)(F)F)C4)c3C3CC3)CC2)CC1 [Example 43, 1-{1-[1-(1-acetylpiperidin-4-yl-carbamoyl)piperidin-4-yl]-5-cyclopropyl-1H-pyrazole-4-carbonyl}-[(S)-3-(2-trifluoromethylphenyl)]pyrrolidine]
O=C(O)c1ccc(N2CCC(n3ncc(C(=O)N4CCC(c5ccccc5C(F)(F)F)C4)c3C3CC3)CC2)cc1 (stereo not drawn) [Example 113, 4-(4-{5-cyclopropyl-4-[3-(2-trifluoromethylphenyl)pyrrolidine-1-carbonyl]pyrazol-1-yl}piperidin-1-yl)benzoic acid]
CC(C)C(=O)NCC(=O)N1CCC(n2ncc(C(=O)N3CC[C@@H](c4ccccc4C(F)(F)F)C3)c2C2CC2)CC1 [Example 87, 1-{5-cyclopropyl-1-[1-(2-isobutyrylaminoacetyl)piperidin-4-yl]-1H-pyrazole-4-carbonyl}-[(S)-3-(2-trifluoromethylphenyl)]pyrrolidine]
